Test system: Human Umbilical Vein Endothelial Cell (HUVEC)
Assay: HUVEC vasculogenesis/angiogenesis assay (HUVEC co-cultured with human fibroblasts, CD31 labeling of vessels)
Assay type: cell-based
Settings: for all three vessel parameters relative to the control wells: 11 days, p<0.05, one way ANOVA
Description: Studies were conducted to determine the effects of anti-LOXL2 antibody AB0023 in an in vitro vasculogenesis/angiogenesis assay. For this purpose, a dose range of AB0023 was tested alongside VEGF (an angiogenesis promoter), suramin (an angiogenesis inhibitor) and media alone in a HUVECs based in vitro system. The assay was run for 11 days with media changes on days 1, 4, 7 and 9. After 11 days, wells were fixed with 70% ethanol and vessels were tested for expression of CD31, an endothelial marker. Images of 4 random fields per well were taken and the number of branch points, number of vessels and total vessel length was calculated for each well using a specialist software analysis package.
At this point (day 1), fresh endothelial cell growth medium containing the test item and controls, as detailed in Table 1, was added to wells at 0.5 ml per well. Test item and controls were added in duplicate or triplicate according to Table 1, and media-only added in triplicate acted as baseline endothelial growth control. The plate was then cultured at 37° C. and 5% CO2. On days 4, 7 and 9 the medium was removed from all wells and carefully replaced with 0.5 ml of fresh medium containing the test item and controls as detailed in Table 1. On day 11, the plates were fixed and labeled for CD31 as detailed below. On each day of the experiment the plate was visualized using an inverted microscope to ensure normal growth cells and no contamination.
After 11 days, plates were fixed by carefully aspirating medium from wells, washed with 1 ml PBS per well, and then 1 ml ice cold 70% ethanol was added for 30 minutes at room temperature. Fixative was then carefully removed and the wells were incubated with 0.5 ml mouse anti-human CD31 antibody diluted 1:400 in PBS containing 1% BSA and incubated for 60 minutes at 37° C. Wells were then washed three times with 1 ml PBS followed by incubation with 0.5 ml goat anti-mouse IgG alkaline phosphatase conjugated secondary antibody diluted 1:500 in PBS containing 1% BSA for 60 minutes at 37° C. Wells were washed a further three times with 1 ml PBS prior to incubation with 0.5 ml freshly prepared and filtered BCIP/NBT substrate for 10 minutes at 37° C. Wells were then carefully washed three times with 1 ml distilled water and left to air dry overnight.
Digital images of each well were obtained using a Nikon Coolpix camera on a Leica inverted microscope at 10× magnification. Four random fields per well were imaged, producing 96 images in total. Images were then converted to BMP files and imported into an image analysis package to measure the number of vessel branches, number of vessels and total vessel length. This is performed by thresholding the image so that only CD31-stained vessels were detected, which the software then skeletonized to produce single pixel width vessels. From these, individual vessel length, total vessel length and number of vessel branch points were determined. The data were then exported to Excel to calculate mean and standard deviation for each data set. Basic statistics were carried out using a one-way ANOVA.

Row | Molecule | branching relative to the control group | vessel formation relative to control wells (VEGF 2 ng/ml (FIG. 4)) | all three vessel parameters relative to the control wells (VEGF 2 ng/ml) | number of branches relative to the control group (20 μM suramin, p<0.05 one way ANOVA) | vessel formation relative to control wells (suramin 20 μM (FIG. 2)) | all three vessel parameters relative to the control wells (suramin 20 μM)
1 | VEGF | significant increase | increase in vessel formation | increase |  |  | 
2 | Cc1ccc(C(=O)Nc2ccc(S(=O)(=O)O)c3cc(S(=O)(=O)O)cc(S(=O)(=O)O)c23)cc1NC(=O)c1cccc(NC(=O)Nc2cccc(C(=O)Nc3cc(C(=O)Nc4ccc(S(=O)(=O)O)c5cc(S(=O)(=O)O)cc(S(=O)(=O)O)c45)ccc3C)c2)c1 [Suramin, suramin] |  |  |  | significant reduction | decrease in vessel formation | significant decrease

Source: patent US20110207144A1, “IN VITRO SCREENING ASSAYS” (priority 2009, published 2011)
